Among the data in patent US6352958B1, “Cycloimido-substituted benzofused heterocyclic herbicides” (FMC Corporation, priority 1997, dated 2002) are inhibition values, retold here.

Common to all, as to format: in vivo
The test system of test [1] is Johnsongrass (Sorghum halepense). Kind of test: Postemergence herbicidal activity, johnsongrass. To be noted: Sorghum halepense, post-emergence, rate of application 0.3 Kg/Ha, rated after 12-17 days, read-out: Postemergence herbicidal activity (% control) SORHA.
The subject of test [2] is common chickweed (Stellaria media). Kind of test: Preemergence herbicidal activity, chickweed. The conditions noted are these: Stellaria media, pre-emergence, Rate of Application 0.3 Kg/Ha, examined after 12-17 days, read-out: PREEMERGENCE HERBICIDAL ACTIVITY (% CONTROL) STEME.
The test system of test [3] is morningglory (Ipomea lacunosa or Ipomea hederacea). Kind of test: Postemergence herbicidal activity, morningglory. The conditions noted are these: Ipomoea, post-emergence, rate of application 0.3 Kg/Ha, rated after 12-17 days, read-out: Postemergence herbicidal activity (% control) IPOSS.
The test system is the same in test [4]. Kind of test: Preemergence herbicidal activity, morningglory. The conditions noted are these: Ipomoea, pre-emergence, Rate of Application 0.3 Kg/Ha, examined after 12-17 days, read-out: PREEMERGENCE HERBICIDAL ACTIVITY (% CONTROL) IPOSS.
The test system of test [5] is green foxtail (Setaria viridis). Kind of test: Postemergence herbicidal activity, green foxtail. To be noted: Setaria viridis, post-emergence, rate of application 0.3 Kg/Ha, rated after 12-17 days, read-out: Postemergence herbicidal activity (% control) SETVI.
The subject of test [6] is velvetleaf (Abutilon theophrasti). Kind of test: Postemergence herbicidal activity, velvetleaf. The conditions noted are these: Abutilon theophrasti, post-emergence, rate of application 0.3 Kg/Ha, rated after 12-17 days, read-out: Postemergence herbicidal activity (% control) ABUTH.
Test [7] relates to soybean (Glycine max var. Winchester). Kind of test: Preemergence herbicidal activity, soybean. The conditions noted are these: Glycine max, pre-emergence, Rate of Application 0.3 Kg/Ha, examined after 12-17 days, read-out: PREEMERGENCE HERBICIDAL ACTIVITY (% CONTROL) SOY.
In test [8] the test system is field corn (Zea mays var. Pioneer 3732). Kind of test: Preemergence herbicidal activity, corn. The conditions noted are these: Zea mays, pre-emergence, Rate of Application 0.3 Kg/Ha, examined after 12-17 days, read-out: PREEMERGENCE HERBICIDAL ACTIVITY (% CONTROL) CRN.
For test [9], the system named is velvetleaf (Abutilon theophrasti). Kind of test: Preemergence herbicidal activity, velvetleaf. The conditions noted are these: Abutilon theophrasti, pre-emergence, Rate of Application 0.3 Kg/Ha, examined after 12-17 days, read-out: PREEMERGENCE HERBICIDAL ACTIVITY (% CONTROL) ABUTH.
Test [10] deals with wheat (Triticum aestivum var. Lew). Kind of test: Preemergence herbicidal activity, wheat. The conditions noted are these: Triticum aestivum, pre-emergence, Rate of Application 0.3 Kg/Ha, examined after 12-17 days, read-out: PREEMERGENCE HERBICIDAL ACTIVITY (% CONTROL) WHT.
Test [11] deals with common cocklebur (Xanthium strumarium L.). Kind of test: Preemergence herbicidal activity, cocklebur. The conditions noted are these: Xanthium strumarium, pre-emergence, Rate of Application 0.3 Kg/Ha, examined after 12-17 days, read-out: PREEMERGENCE HERBICIDAL ACTIVITY (% CONTROL) XANPE.
The subject of test [12] is Johnsongrass (Sorghum halepense). Kind of test: Preemergence herbicidal activity, johnsongrass. The conditions noted are these: Sorghum halepense, pre-emergence, Rate of Application 0.3 Kg/Ha, examined after 12-17 days, read-out: PREEMERGENCE HERBICIDAL ACTIVITY (% CONTROL) SORHA.
Test [13] relates to field corn (Zea mays var. Pioneer 3732). Kind of test: Postemergence herbicidal activity, corn. The conditions noted are these: Zea mays, post-emergence, rate of application 0.3 Kg/Ha, rated after 12-17 days, read-out: Postemergence herbicidal activity (% control) CRN.

With `CC(C)c1nc2c(-n3c(=O)cc(C(F)(F)F)n(C)c3=O)c(F)cc(Cl)c2o1` [Compound 28, 1-METHYL-6-TRIFLUOROMETHYL-3-[7-CHLORO-5-FLUORO-2-(1-METHYLETHYL)BENZOXAZOL4-YL]-2,4(1H,3H)-PYRIMIDINEDIONE], the inhibition at 300 g/ha in [1] turned out to be 95%; in test [2] it was 100%; in test [3], 100%; in test [4], 100%; in [5] it was 100%; in test [6], 100%. The inhibition at 300 g/ha in test [7] came out at 100%; in test [8] it was 95%; in test [9], 100%; in test [10], 100%; in [11], 100%; in test [12] it was 100%. Further, the inhibition at 300 g/ha in test [13] was determined as 80%.
With `CCc1nc2c(-n3c(=O)cc(C(F)(F)F)n(C)c3=O)c(F)cc(Cl)c2[nH]1` [Compound 367, 3-(4-CHLORO-2-ETHYL-6-FLUOROBENZIMIDAZOL-7-YL)-1-METHYL-6-TRIFLUOROMETHYL-2,4(1H,3H)-PYRIMIDINEDIONE], the inhibition at 300 g/ha in [1], in [2], in test [3], in [4], in test [5] and in test [6] was 100% in each case. In addition, the inhibition at 300 g/ha was found to be 100% in test [7]; 100% in test [8]; 100% in [9]; 95% in test [10]; 100% in test [11]; 100% in test [12]. Further, in test [13], the inhibition at 300 g/ha turned out to be 100%.
As for `Cn1c(C(F)(F)F)cc(=O)n(-c2c(F)cc(Cl)c3[nH]c(C(F)(F)F)cc23)c1=O` [Compound 500, 3-(7-CHLORO-5-FLUORO-2-TRIFLUOROMETHYLINDOL-4-YL)-1-METHYL-6-TRIFLUOROMETHYL-2,4(1H,3H)-PYRIMIDINEDIONE], the inhibition at 300 g/ha in test [1], in test [2], in test [3], in test [4], in [5] and in [6] was 100% in each case. Besides, the inhibition at 300 g/ha came out at 95% in [7]; 90% in [8]; 100% in [9]; 75% in [10]; 100% in [11]; 100% in test [12]. Besides, in [13], the inhibition at 300 g/ha was determined as 95%.
